Assay results as given in US11104619B2, “Mixture for treating fertilizers containing urea” (EuroChem Agro GmbH, priority 2015, dated 2021).
Like-named read-outs stand apart in the source and are kept apart here.

Assays:
nitrification [1] = assay: Soil incubation trial: cumulative laughing gas (N2O-N) emission; conditions: 77 mg N applied; for N2O—N cumulative, % of appl.: cumulative over 28 days
urease [2] = conditions: for Ammonia emission, % of the urea applied (77 mg N): Filder loam, 20° C., label gives UI/NI fraction of recommended rate
Description: Screening trials were conducted to evaluate the effect of DMPSA and NBPT in the inhibition of urease and inhibition of nitrification, and to find suitable quantities for use. Serving for this purpose was a two-factorial trial design including an unfertilized control sample. For the urease inhibitor NBPT and for the nitrification inhibitor DMPSA, in each case 0%, 33%, 66% and 100% of the application rates recommended for the individual compounds when used alone were used (in this example, 0.6 g of NBPT per kg of urea and, respectively, 3.6 g of DMPSA per kg of urea), giving 16 trials (0%-0% to 100%-100%), in addition to the unfertilized control sample.
Urea fertilizer was delivered in an amount of 200 kg nitrogen per ha, corresponding to 0.51 mg of urea nitrogen per g of soil. The soil used was Filder loam with a pH of 6.8. The incubation trials were carried out at 20° C. For the investigation of trace gases, air supply was passed first through a gas sample, then through a 250 ml capacity glass bottle containing 150 g of soil, subsequently through a gas sample for the outgoing air and through an acid trap, in order, for example, to determine amounts of ammonia. For the measurement of nitrogen, about 20 g of soil were incubated; for the measurement of urea, about 5 g of soil.

nitrification [3] = assay: Soil incubation trial: recovery of applied urea N as ammonium; conditions: for percentage recovery in the form of ammonium, % of applied urea (13 mg N): 28 days after application, Filder loam pH 6.8, 20° C., 200 kg urea N/ha, label gives UI/NI fraction of recommended rate (0.6 g NBPT, 3.6 g DMPSA per kg urea)
Description: % of applied urea (13 mg N)
A determination was carried out 28 days after application of the urea, with the percentage recovery in the form of ammonium being reported.

urease [4] = assay: Screening trials: hydrolysis of urea in soil; conditions: first few days of application; with DMPSA present
nitrification [5] = assay: Soil incubation trial: nitrate formed from applied urea N; conditions: Filder loam, 20° C., label gives UI/NI fraction of recommended rate
Description: % of the urea applied (13 mg N)

SMILES: CCCCNP(N)(N)=S [NBPT, N-(n-butyl)thiophosphoric triamide]
- N2O—N cumulative (nitrification [1]; 0 days after appl., 150 g soil): 0 μg N2O—N Bottle^1
- N2O—N cumulative (nitrification [1]; 0.5 days after appl.): 0 μg N2O—N Bottle^1
- N2O—N cumulative (nitrification [1]; 1 day after appl., listed as UI-1_NI-0): 2 μg N2O—N Bottle^1
- N2O—N cumulative (nitrification [1]; 1 day after appl., listed as UI-2_NI-0): 1 μg N2O—N Bottle^1
- N2O—N cumulative (nitrification [1]; 1 day after appl., listed as UI-3_NI-0): 2 μg N2O—N Bottle^1
- N2O—N cumulative (nitrification [1]; 2 days after appl., listed as UI-1_NI-0): 3 μg N2O—N Bottle^1
- N2O—N cumulative (nitrification [1]; 2 days after appl., listed as UI-2_NI-0): 2 μg N2O—N Bottle^1
- N2O—N cumulative (nitrification [1]; 2 days after appl., listed as UI-3_NI-0): 7 μg N2O—N Bottle^1
- N2O—N cumulative (nitrification [1]; 3 days after appl., listed as UI-1_NI-0): 4 μg N2O—N Bottle^1
- N2O—N cumulative (nitrification [1]; 3 days after appl., listed as UI-2_NI-0): 3 μg N2O—N Bottle^1
- N2O—N cumulative (nitrification [1]; 3 days after appl., listed as UI-3_NI-0): 10 μg N2O—N Bottle^1
- N2O—N cumulative (nitrification [1]; 4 days after appl., listed as UI-1_NI-0): 5 μg N2O—N Bottle^1
- N2O—N cumulative (nitrification [1]; 4 days after appl., listed as UI-2_NI-0): 3 μg N2O—N Bottle^1
- N2O—N cumulative (nitrification [1]; 4 days after appl., listed as UI-3_NI-0): 11 μg N2O—N Bottle^1
- N2O—N cumulative (nitrification [1]; 5 days after appl., listed as UI-1_NI-0): 7 μg N2O—N Bottle^1
- N2O—N cumulative (nitrification [1]; 5 days after appl., listed as UI-2_NI-0): 4 μg N2O—N Bottle^1
- N2O—N cumulative (nitrification [1]; 5 days after appl., listed as UI-3_NI-0): 12 μg N2O—N Bottle^1
- N2O—N cumulative (nitrification [1]; 6 days after appl., listed as UI-1_NI-0): 16 μg N2O—N Bottle^1
- N2O—N cumulative (nitrification [1]; 6 days after appl., listed as UI-2_NI-0): 8 μg N2O—N Bottle^1
- N2O—N cumulative (nitrification [1]; 6 days after appl., listed as UI-3_NI-0): 13 μg N2O—N Bottle^1
- N2O—N cumulative (nitrification [1]; 8 days after appl., listed as UI-1_NI-0): 32 μg N2O—N Bottle^1
- N2O—N cumulative (nitrification [1]; 8 days after appl., listed as UI-2_NI-0): 16 μg N2O—N Bottle^1
- N2O—N cumulative (nitrification [1]; 8 days after appl., listed as UI-3_NI-0): 20 μg N2O—N Bottle^1
- N2O—N cumulative (nitrification [1]; 10 days after appl., listed as UI-1_NI-0): 48 μg N2O—N Bottle^1
- N2O—N cumulative (nitrification [1]; 10 days after appl., listed as UI-2_NI-0): 36 μg N2O—N Bottle^1
- N2O—N cumulative (nitrification [1]; 10 days after appl., listed as UI-3_NI-0): 31 μg N2O—N Bottle^1
- N2O—N cumulative (nitrification [1]; 12 days after appl., listed as UI-1_NI-0): 75 μg N2O—N Bottle^1
- N2O—N cumulative (nitrification [1]; 12 days after appl., listed as UI-2_NI-0): 67 μg N2O—N Bottle^1
- N2O—N cumulative (nitrification [1]; 12 days after appl., listed as UI-3_NI-0): 52 μg N2O—N Bottle^1
- N2O—N cumulative (nitrification [1]; 14 days after appl., listed as UI-1_NI-0): 122 μg N2O—N Bottle^1
- N2O—N cumulative (nitrification [1]; 14 days after appl., listed as UI-2_NI-0): 125 μg N2O—N Bottle^1
- N2O—N cumulative (nitrification [1]; 14 days after appl., listed as UI-3_NI-0): 90 μg N2O—N Bottle^1
- N2O—N cumulative (nitrification [1]; 17 days after appl., listed as UI-1_NI-0): 144 μg N2O—N Bottle^1
- N2O—N cumulative (nitrification [1]; 17 days after appl., listed as UI-2_NI-0): 145 μg N2O—N Bottle^1
- N2O—N cumulative (nitrification [1]; 17 days after appl., listed as UI-3_NI-0): 99 μg N2O—N Bottle^1
- N2O—N cumulative (nitrification [1]; 18 days after appl., listed as UI-1_NI-0): 179 μg N2O—N Bottle^1
- N2O—N cumulative (nitrification [1]; 18 days after appl., listed as UI-2_NI-0): 190 μg N2O—N Bottle^1
- N2O—N cumulative (nitrification [1]; 18 days after appl., listed as UI-3_NI-0): 125 μg N2O—N Bottle^1
- N2O—N cumulative (nitrification [1]; 20 days after appl., listed as UI-1_NI-0): 203 μg N2O—N Bottle^1
- N2O—N cumulative (nitrification [1]; 20 days after appl., listed as UI-2_NI-0): 215 μg N2O—N Bottle^1
- N2O—N cumulative (nitrification [1]; 20 days after appl., listed as UI-3_NI-0): 141 μg N2O—N Bottle^1
- N2O—N cumulative (nitrification [1]; 22 days after appl., listed as UI-1_NI-0): 238 μg N2O—N Bottle^1
- N2O—N cumulative (nitrification [1]; 22 days after appl., listed as UI-2_NI-0): 249 μg N2O—N Bottle^1
- N2O—N cumulative (nitrification [1]; 22 days after appl., listed as UI-3_NI-0): 156 μg N2O—N Bottle^1
- N2O—N cumulative (nitrification [1]; 24 days after appl., listed as UI-1_NI-0): 343 μg N2O—N Bottle^1
- N2O—N cumulative (nitrification [1]; 24 days after appl., listed as UI-2_NI-0): 312 μg N2O—N Bottle^1
- N2O—N cumulative (nitrification [1]; 24 days after appl., listed as UI-3_NI-0): 174 μg N2O—N Bottle^1
- N2O—N cumulative (nitrification [1]; 28 days after appl., listed as UI-1_NI-0): 497 μg N2O—N Bottle^1
- N2O—N cumulative (nitrification [1]; 28 days after appl., listed as UI-2_NI-0): 397 μg N2O—N Bottle^1
- N2O—N cumulative (nitrification [1]; 28 days after appl., listed as UI-3_NI-0): 194 μg N2O—N Bottle^1
- N2O—N cumulative, % of appl. (nitrification [1]; listed as UI-1_NI-0): 0.65 % of appl.
- N2O—N cumulative, % of appl. (nitrification [1]; listed as UI-2_NI-0): 0.52 % of appl.
- N2O—N cumulative, % of appl. (nitrification [1]; listed as UI-3_NI-0): 0.25 % of appl.
- reduction in ammonia emissions (urease [2]; 66% NBPT, especially 9 days after application): notable and almost complete reduction in ammonia emissions
- Ammonia emission, % of the urea applied (77 mg N) (urease [2]; 4 days after application, listed as UI 1 NI 0): 0.0%
- Ammonia emission, % of the urea applied (77 mg N) (urease [2]; 4 days after application, listed as UI ⅓ NI 0): 0.3%
- Ammonia emission, % of the urea applied (77 mg N) (urease [2]; 4 days after application, listed as UI ⅔ NI 0): 0.1%
- Ammonia emission, % of the urea applied (77 mg N) (urease [2]; 9 days after application, listed as UI 1 NI 0): 0.0%
- Ammonia emission, % of the urea applied (77 mg N) (urease [2]; 9 days after application, listed as UI ⅓ NI 0): 1.1%
- Ammonia emission, % of the urea applied (77 mg N) (urease [2]; 9 days after application, listed as UI ⅔ NI 0): 0.2%
- effect on the increase in ammonia emission caused by the nitrification inhibitor (urease [2]; addition of NBPT): prevent the increase in ammonia emission
- percentage recovery in the form of ammonium, % of applied urea (13 mg N) (nitrification [3]; listed as UI 1 NI 0): 28%
- percentage recovery in the form of ammonium, % of applied urea (13 mg N) (nitrification [3]; listed as UI ⅓ NI 0): 9%
- percentage recovery in the form of ammonium, % of applied urea (13 mg N) (nitrification [3]; listed as UI ⅔ NI 0): 21%
- supplementary influence on ammonium recovery (nitrification [3]; after 28 days): no supplementary influence
- inhibition of the hydrolysis of urea (urease [4]): sufficiently inhibits the hydrolysis of urea
- Nitrate, % of the urea applied (13 mg N) (nitrification [5]; 5 days after application, listed as UI 1 NI 0): 11%
- Nitrate, % of the urea applied (13 mg N) (nitrification [5]; 5 days after application, listed as UI ⅓ NI 0): 10%
- Nitrate, % of the urea applied (13 mg N) (nitrification [5]; 5 days after application, listed as UI ⅔ NI 0): 11%
- Nitrate, % of the urea applied (13 mg N) (nitrification [5]; 28 days after application, listed as UI 1 NI 0): 52%
- Nitrate, % of the urea applied (13 mg N) (nitrification [5]; 28 days after application, listed as UI ⅓ NI 0): 58%
- Nitrate, % of the urea applied (13 mg N) (nitrification [5]; 28 days after application, listed as UI ⅔ NI 0): 64%
